Reference: ChEMBL document CHEMBL4339240, “Structural Elucidation of Presilphiperfolane-7α,8α-diol, a Bioactive Sesquiterpenoid from Pulicaria vulgaris: A Combined Approach of Solvent-Induced Chemical Shifts, GIAO Calculation of Chemical Shifts, and Full Spin Analysis” (J Nat Prod, 2019)

Tests used:
[1] = Toxicity in Artemia salina by brine shrimp lethality assay; details: in vivo
[2] = Toxicity in mouse assessed as induction of mortality; details: in vivo

O=C1C[C@@H]2OCC=C3CN4CC[C@]56c7ccccc7N1[C@H]5[C@H]2[C@H]3C[C@H]46.O=S(=O)(O)O
LC50 [1]: 200 µM
LD50 [2]: < 2 mg/kg
